What was measured:
MMP-9 = MMP-9 (Homo sapiens, UniProt P14780); assay: MMP inhibitory activity IC50, MMP-9; format: biochemical
MMP-7 = biological target: T1, MMP-7 (Homo sapiens, UniProt P09237); assay: MMP inhibitory activity IC50, MMP-7; format: biochemical
T1 sequence (P09237 95-267): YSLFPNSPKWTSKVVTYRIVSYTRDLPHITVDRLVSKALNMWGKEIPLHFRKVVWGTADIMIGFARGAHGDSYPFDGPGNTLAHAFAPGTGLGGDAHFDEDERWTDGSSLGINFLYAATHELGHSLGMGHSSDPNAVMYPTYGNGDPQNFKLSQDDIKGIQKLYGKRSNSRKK

MMP-1 = biological target: T2, MMP-1 (Homo sapiens, UniProt P03956); assay: MMP inhibitory activity IC50, MMP-1; format: biochemical
T2 sequence (P03956 100-469): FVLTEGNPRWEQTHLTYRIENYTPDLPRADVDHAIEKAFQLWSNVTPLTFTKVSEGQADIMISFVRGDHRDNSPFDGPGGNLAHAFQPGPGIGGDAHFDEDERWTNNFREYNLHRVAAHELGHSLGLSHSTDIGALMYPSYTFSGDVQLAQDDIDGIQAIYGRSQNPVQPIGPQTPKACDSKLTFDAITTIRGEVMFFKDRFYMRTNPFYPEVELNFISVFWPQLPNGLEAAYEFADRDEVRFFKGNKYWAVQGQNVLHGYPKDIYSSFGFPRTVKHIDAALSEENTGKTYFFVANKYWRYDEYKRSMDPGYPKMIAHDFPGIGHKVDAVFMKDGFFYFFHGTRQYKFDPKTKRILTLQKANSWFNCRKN

[1] = tested on: gelatin degradation in cancer tissue (human lung cancer cell line Ma44); assay: In situ zymography of tumor mass from Ma44-bearing nude mice after oral administration; format: in vivo; settings: for Quantitative analysis using Optimas Ver.6 (brightness in each tissue/size in each tissue): 200 mg/kg orally, two hours after administration, vehicle 49.2; for inhibition of the gelatin degradation: nude mice; for Quantitative analysis using Optimas Ver.6: vehicle 53.4
Method: Fifteen g of acid-treated swine cutis gelatin was dissolved in 123 g of pure water, and the solution was added with 1.2 ml of 1,2-bis(vinylsulfonylacetamido)ethane (4%) as a hardening agent. The solution was uniformly applied to a polyethylene terephthalate film undercoated with gelatin so as to obtain a dried membrane having a thickness of about 7 μm, and the membrane was dried to obtain a gelatin thin membrane. The gelatin thin membrane was stored at room temperature until the use.
Human lung cancer cell line Ma44 (CANCER RESEARCH 59, 1231-35 (1999)) that was known to produce MMP-2 in a large amount was used. Nude mice (six weeks aged, female, CLEA Japan, Inc.) were transplanted intraperitoneally with 1×10^5 Ma44 cells, and, 14 days later, BPHA or (−)BPHA was administered orally to the animals at 200 mg/kg. As control, a vehicle (a physiological saline containing 0.4% Tween80, 0.5% carboxymethyl cellulose, and 0.9% benzyl alcohol) was similarly administered. Two hours after the administration, the cancer-bearing mice were autopsied to remove the tumor mass formed at the abdominal wall and the mesenterium, and the mass was subjected to the in situ zymography experiment.
The tumor mass was embedded in OCT Compound (SAKURA), and then Microtone/Cryostat TISSUE TEK II (Miles-Sankyo) was used to prepare […] having a thickness of 8 μm. The […] were placed gently onto the gelatin thin membrane previously prepared to give samples, and then the membranes were placed into a humid bath to prevent them from drying, followed by leaving the membranes to stand in an incubator at 37° C. After reacted for 3.5 hours, the thin membranes were taken out, and stained with a 1% Amido Black solution (Wako Pure Chemical Industries) for 15 minutes. Subsequently, the membranes were treated with a decolorizing solution (70% methanol, 10% acetic acid) for 10 minutes.
The cancer tissue on the thin membrane was observed under light microscopy to determine the area where the gelatin degradation was recognized. Additionally, the slide scanner (Nikon 35 mm film scanner: COOLSCAN II) was used to analyze quantitatively the tone with the software Optimas Ver.6 (Optimas Corporation).
was orally administered at dosages of 0.2, 2.0, 20.0, and 200.0 mg/kg in stead of the administrations of BPHA and (−)BPHA, treatments were conducted for in situ zymography.

MMP-2 = biological target: T3, MMP-2 (Homo sapiens, UniProt P08253); assay: MMP inhibitory activity IC50, MMP-2; format: biochemical
T3 sequence (P08253 110-660): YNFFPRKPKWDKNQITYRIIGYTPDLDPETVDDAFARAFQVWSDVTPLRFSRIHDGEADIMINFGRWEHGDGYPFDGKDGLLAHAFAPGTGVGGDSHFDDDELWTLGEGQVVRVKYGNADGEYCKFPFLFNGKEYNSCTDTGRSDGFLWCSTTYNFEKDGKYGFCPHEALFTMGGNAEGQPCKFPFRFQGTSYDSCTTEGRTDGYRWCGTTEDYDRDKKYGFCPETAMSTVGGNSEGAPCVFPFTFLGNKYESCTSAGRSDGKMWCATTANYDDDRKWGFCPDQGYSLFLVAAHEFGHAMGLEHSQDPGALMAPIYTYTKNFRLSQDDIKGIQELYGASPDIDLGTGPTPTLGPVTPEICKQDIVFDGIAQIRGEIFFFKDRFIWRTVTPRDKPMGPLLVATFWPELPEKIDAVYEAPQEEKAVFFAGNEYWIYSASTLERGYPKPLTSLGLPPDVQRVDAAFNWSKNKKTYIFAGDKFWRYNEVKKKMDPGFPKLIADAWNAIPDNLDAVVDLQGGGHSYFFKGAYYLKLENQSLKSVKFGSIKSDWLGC

MMP-3 = MMP-3 (Homo sapiens, UniProt P08254); assay: MMP inhibitory activity IC50, MMP-3; format: biochemical
Sequence of MMP-3 (P08254 100-477, species assumed): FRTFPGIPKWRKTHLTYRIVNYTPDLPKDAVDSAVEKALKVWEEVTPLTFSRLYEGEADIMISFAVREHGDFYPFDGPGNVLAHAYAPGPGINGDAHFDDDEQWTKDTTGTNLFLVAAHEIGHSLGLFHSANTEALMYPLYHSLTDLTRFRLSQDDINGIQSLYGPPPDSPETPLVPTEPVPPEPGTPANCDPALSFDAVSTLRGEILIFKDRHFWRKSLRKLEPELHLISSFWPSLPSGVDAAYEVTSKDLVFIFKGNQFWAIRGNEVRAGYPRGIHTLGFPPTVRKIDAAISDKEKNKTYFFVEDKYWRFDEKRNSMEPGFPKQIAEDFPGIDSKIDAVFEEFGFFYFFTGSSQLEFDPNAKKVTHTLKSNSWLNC

MMP-14 = MMP-14 (Homo sapiens, UniProt P50281); assay: MMP inhibitory activity IC50, MMP-14; format: biochemical

Sequence of MMP-9 (P14780 94-707, species assumed): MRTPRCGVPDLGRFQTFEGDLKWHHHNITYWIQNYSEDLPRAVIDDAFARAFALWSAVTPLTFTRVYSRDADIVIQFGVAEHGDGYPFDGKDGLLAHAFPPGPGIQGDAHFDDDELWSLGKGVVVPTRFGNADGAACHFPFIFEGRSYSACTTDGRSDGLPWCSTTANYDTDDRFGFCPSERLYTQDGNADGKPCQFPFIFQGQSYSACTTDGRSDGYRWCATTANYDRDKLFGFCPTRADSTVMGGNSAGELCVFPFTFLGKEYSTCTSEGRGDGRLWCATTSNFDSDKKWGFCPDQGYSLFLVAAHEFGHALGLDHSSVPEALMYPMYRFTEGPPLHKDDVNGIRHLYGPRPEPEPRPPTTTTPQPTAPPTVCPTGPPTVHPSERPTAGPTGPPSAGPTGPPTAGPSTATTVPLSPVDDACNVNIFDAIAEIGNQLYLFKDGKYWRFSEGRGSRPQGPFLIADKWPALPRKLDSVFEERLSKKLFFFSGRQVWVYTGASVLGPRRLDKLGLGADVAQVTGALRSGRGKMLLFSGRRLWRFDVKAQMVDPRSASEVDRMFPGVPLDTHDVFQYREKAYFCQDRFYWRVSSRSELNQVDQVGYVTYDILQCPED

Row | Compound | IC50 (MMP-9) | IC50 (MMP-7) | IC50 (MMP-1) | Quantitative analysis using Optimas Ver.6 (brightness in each tissue/size in each tissue) [1] | IC50 (MMP-2) | IC50 (MMP-3) | IC50 (MMP-14) | inhibition of the gelatin degradation ([1]; 0.2 mg/kg orally) | Quantitative analysis using Optimas Ver.6 ([1]; 0.2 mg/kg orally) | Quantitative analysis using Optimas Ver.6 ([1]; 2.0 mg/kg orally) | Quantitative analysis using Optimas Ver.6 ([1]; 20.0 mg/kg orally) | inhibition of the gelatin degradation ([1]; 200.0 mg/kg orally) | Quantitative analysis using Optimas Ver.6 ([1]; 200.0 mg/kg orally) | inhibition of the gelatin degradation ([1]; 20.0 to 2.0 mg/kg orally)
1 | O=C(NO)[C@H](Cc1ccccc1)NS(=O)(=O)c1ccc(-c2ccccc2)cc1 [(−)BPHA] | > 1000 nM | > 1000 nM | > 1000 nM | 40.1 | > 1000 nM | > 1000 nM | > 1000 nM | – | – | – | – | – | – | –
2 | O=C(NO)[C@@H](Cc1ccccc1)NS(=O)(=O)c1ccc(-c2ccccc2)cc1 [BPHA] | 16 nM | 795 nM | 974 nM | 8.6 | 12 nM | > 1000 nM | 17 nM | – | – | – | – | – | – | –
3 | O=C(O)[C@@H](Cc1c[nH]c2ccccc12)NS(=O)(=O)c1ccc(-c2nnn(-c3ccccc3)n2)cc1 [MMI-166] | – | – | – | – | – | – | – | merely partial inhibition | 41.3 | 28.6 | 13.7 | complete inhibition of the gelatin degradation | 5.3 | the inhibition was lowered in sequence

Reference: patent publication US6627411B2, “Method for evaluating matrix metalloprotease inhibitory activity” (Shionogi & Co., Ltd., priority 1999, dated 2003)
